What was measured:
Format in all cases: in vivo
Ctenocephalides felis = Ctenocephalides felis in vitro contact test; details: application rate 5 μg/cm^2; adult cat fleas; after 48 h
Method: Ctenocephalides felis—In Vitro Contact Test
For the coating of the test tubes, 9 mg of active compound are first dissolved in 1 ml of acetone p.a. and then diluted to the desired concentration with acetone p.a. 250 μl of the solution are distributed homogeneously on the inner walls and the base of a 25 ml test tube by turning and rocking on an orbital shaker (rocking rotation at 30 rpm for 2 h). With 900 ppm active compound solution and internal surface 44.7 cm^2, given homogeneous distribution, an area-based dose of 5 μg/cm^2 is achieved.
After the solvent has evaporated off, the tubes are populated with 5-10 adult cat fleas (Ctenocephalides felis), sealed with a perforated plastic lid and incubated in a horizontal position at room temperature and ambient humidity. After 48 h, efficacy is determined. To this end, the test tubes are stood upright and the fleas are knocked to the base of the tube. Fleas which remain motionless at the base or move in an uncoordinated manner are considered to be dead or moribund.
100% efficacy means that all the fleas were dead or moribund. 0% efficacy means that no fleas were harmed.

[1] = tested on: Boophilus microplus Parkhurst strain, SP-resistant; experiment: Boophilus microplus dip test (BOOPMI Dip); details: application rate 20 ppm; engorged adult female cattle ticks; after 7 days
Method: Boophilus microplus—Dip Test (BOOPMI Dip) Test animals: cattle ticks (Boophilus microplus) Parkhurst strain, SP-resistant Solvent: dimethyl sulphoxide
10 mg of active compound are dissolved in 0.5 ml of dimethyl sulphoxide. To produce a suitable formulation, the active compound solution is diluted with water to the concentration desired in each case.
This active compound preparation is pipetted into tubes. 8-10 engorged adult female cattle ticks (Boophilus microplus) are transferred into a further tube with holes. The tube is immersed into the active compound preparation, and all the ticks are completely wetted. After the liquid has run out, the ticks are transferred on filter discs into plastic dishes and stored in a climate-controlled room.
Efficacy is assessed after 7 days by laying of fertile eggs. Eggs which are not visibly fertile are stored in a climate-controlled cabinet until the larvae hatch after about 42 days. An efficacy of 100% means that none of the ticks has laid any fertile eggs; 0% means that all the eggs are fertile.

Lucilia cuprina = Lucilia cuprina test (LUCICU); details: application rate 20 ppm; L1 larvae; after 2 days
Method: Lucilia cuprina-Test (LUCICU) Solvent: dimethyl sulphoxide
To produce a suitable preparation of active compound, 10 mg of active compound are mixed with 0.5 ml of dimethyl sulphoxide, and the concentrate is diluted with water to the desired concentration.
About 20 L1 larvae of the Australian sheep blowfly (Lucilia cuprina) are transferred into a test vessel containing minced horsemeat and the active compound preparation of the desired concentration.
After 2 days, the kill in % is determined. 100% means that all the larvae have been killed; 0% means that no larvae have been killed.

Tetranychus urticae = Tetranychus urticae spray test, OP-resistant (TETRUR); details: application rate 100 g/ha; bean leaf discs; after 6 days
Method: Tetranychus urticae—Spray Test, OP-Resistant (TETRUR) Solvent: 78.0 parts by weight of acetone • • 1.5 parts by weight of dimethylformamide Emulsifier: alkylaryl polyglycol ether
To produce a suitable preparation of active compound, 1 part by weight of active compound is dissolved using the specified parts by weight of solvent and made up with water containing an emulsifier concentration of 1000 ppm until the desired concentration is attained. To produce further test concentrations, the preparation is diluted with emulsifier-containing water.
Discs of bean leaves (Phaseolus vulgaris) infested by all stages of the greenhouse red spider mite (Tetranychus urticae) are sprayed with an active ingredient formulation of the desired concentration.
After 6 days, efficacy in % is determined. 100% means that all the spider mites have been killed; 0% means that no spider mites have been killed.

N-{2-fluoro-5-[2′-methyl-5′-(pentafluoroethyl)-4′-(trifluoromethyl)-2′H-1,3′-bipyrazol-4-yl]benzyl}propanamide [Ic-1]
100%: efficacy (Ctenocephalides felis) | efficacy (laying of fertile eggs) [1] | efficacy (kill) (Lucilia cuprina) | efficacy (Tetranychus urticae)
